Measured values published in ChEMBL document CHEMBL1149720, “Homoscalarane sesterterpenes from Lendenfeldia frondosa” (J Nat Prod, 1992).
Calls of active or inactive are those of the source. No cut-off for these calls is given here.

Legend:
[1] = Inhibition of PLA2 activity at 8 uM
[2] = Inhibition of PLA2 activity at 4 uM

Row | Structure (SMILES) | Activity [1] | also measured
1 | COC(=O)[C@H]1[C@H](C(C)=O)[C@@H](OC(C)=O)C[C@H]2[C@]3(C)CC[C@H]4C(C)(C)CCC[C@]4(COC(C)=O)[C@H]3C[C@@H](O)[C@]12C | inactive | 
2 | CC1=C(CC/C(C)=C/CCC2=CC[C@H](C3=CC(=O)O[C@H]3O)O[C@H]2O)C(C)(C)CCC1 |  | inhibition [2]: 100%
3 | CC(=O)OC[C@]12CCCC(C)(C)[C@@H]1CC[C@]1(C)[C@@H]2C[C@H]2OC(=O)[C@H]3[C@H](C(C)=O)[C@H](OC(C)=O)C[C@@H]1[C@]23C |  | inhibition [1]: 35%
4 | CC(=O)OC[C@]12CCCC(C)(C)[C@@H]1CC[C@]1(C)[C@@H]2C[C@@H](O)[C@]2(C)[C@H]3C(=O)O[C@@H](C)[C@@H]3[C@@H](OC(C)=O)C[C@@H]12 | inactive | 
